Reference: article PMC10202811 (Nature Medicine, 2023)
“And” between values parts separate entries of the source, which are not always exact repeats. Equal entries are not always repeated. “Also recorded” adds a separate entry of the source.

System: ALK-driven refractory or relapsed neuroblastoma
Test: Anti-tumor response: best overall response by NANT response criteria version 2.0
Type: in vivo, human
Source text: Patients underwent disease staging at baseline, after courses 2 and 4 and then every four courses thereafter. The primary endpoint for response analysis is the BOR, defined as the best response observed before progression or start of another therapy. […] Response was graded according to the NANT response criteria version 2.0 (ref. [26]), modified from the International Neuroblastoma Response Criteria (INRC)[48]. NANT response criteria use three components for assessment of overall response: soft tissue response assessed by anatomical imaging and avidity on MIBG or FDG-PET; bone response assessed by uptake in bone by MIBG or bone involvement on FDG-PET; and bone marrow response assessed by morphology on bilateral aspirates and biopsies. Each response component (soft tissue, bone and bone marrow) are graded as CR, PR, SD and PD. Overall response grading is defined as: CR, if a response of CR in all components that are involved at baseline; PR, if a response of PR or better in all involved components; MR, if a response of PR or better but with at least one involved component as SD and no PD in all involved components; SD, if a response of SD in all involved components; and PD, if a response of PD in at least one involved component. The overall response definitions are identical to overall responses (CR, PR, SD and PD) as defined by the INRC. Response assessment is initially performed by sites and reviewed against source documents by NANT operations. Additional blinded central review of all radiological or pathological data was conducted for patients with overall PR or better and, in addition, radiologic pathological data of all involved sites for patients with MR to assign the final BOR on this study. Response by MIBG was determined using the Curie criteria. RR was determined as the proportion of patients with BOR of CR and PR in each cohort. Based on an international consensus by the National Cancer Institute Clinical Trials Planning Committee to refine tumor site eligibility criteria and evaluation of disease response for early-phase clinical trials in children with high-risk recurrent, refractory and progressive neuroblastoma, we also performed an ad hoc analysis to determine a modified RR that includes the proportion of patients with BOR of CR, PR and MR.

[1] = Cohort A1, Dose Level 1, individual patient
[2] = Cohort A1, Dose Level 3, individual patient
[3] = Cohort A1, Dose Level 4, individual patient
[4] = Cohort A2, Dose Level 3A, individual patient
[5] = Cohort A2, Dose Level 4A, individual patient
[6] = Cohort B2 (with topotecan/cyclophosphamide), DL4
[7] = Cohort B2 (with topotecan/cyclophosphamide), DL5
[8] = Cohort B2, Dose Level 4B, individual patient
[9] = Cohort B2, Dose Level 5B, individual patient

With C[C@H]1Oc2cc(cnc2N)-c2c(nn(C)c2C#N)CN(C)C(=O)c2ccc(F)cc21 [Lorlatinib, (10R)-7-amino-12-fluoro-2,10,16-trimethyl-15-oxo-10,15,16,17-tetrahydro-2H-8,4-(metheno)pyrazolo[4,3-h][2,5,11]-benzoxadiazacyclotetradecine-3-carbonitrile] the “patients with PD before or by the end of course 2” value (<18 years, MYCN-amplified/ALK-mutated neuroblastoma (6/7), cohort A1) was 86%, the “CR, patients” value (Cohort A1 (N= 23), Total) was 1 and the “MR, patients” value (Cohort A1 (N= 23), Total) was 4. For the same compound, the “PD, patients” value (Cohort A1 (N= 23), Total) was 12, the “PR, patients” value (Cohort A1 (N= 23), Total) was 2 and the “CR+PR Rate” value (Cohort A1, DL1) was 1/3. For the same compound, the “CR+PR+MR Rate” value (Cohort A1, DL1) was 2/3, the “CR, patients” value (Cohort A1, DL1) was 0 and the “MR, patients” value (Cohort A1, DL1) was 1. The “PD, patients” value (Cohort A1, DL1) was 1, the “PR, patients” value (Cohort A1, DL1) was 1 and the “CR+PR Rate” value (Cohort A1, DL2) was 0/2. For the same compound, the “CR+PR+MR Rate” value (Cohort A1, DL2) was 0/2, the “CR, patients” value (Cohort A1, DL2) was 0 and the “MR, patients” value (Cohort A1, DL2) was 0. The “PD, patients” value (Cohort A1, DL2) was 2, the “PR, patients” value (Cohort A1, DL2) was 0 and the “CR+PR Rate” value (Cohort A1, DL3) was 0/3. For the same compound, the “CR+PR+MR Rate” value (Cohort A1, DL3) was 0/3, the “CR, patients” value (Cohort A1, DL3) was 0 and the “MR, patients” value (Cohort A1, DL3) was 0. The “PD, patients” value (Cohort A1, DL3) was 2, the “PR, patients” value (Cohort A1, DL3) was 0 and the “CR+PR Rate” value (Cohort A1, DL4) was 0/9. For the same compound, the “CR+PR+MR Rate” value (Cohort A1, DL4) was 2/9, the “CR, patients” value (Cohort A1, DL4) was 0 and the “MR, patients” value (Cohort A1, DL4) was 2. The “PD, patients” value (Cohort A1, DL4) was 5, the “PR, patients” value (Cohort A1, DL4) was 0 and the “CR+PR Rate” value (Cohort A1, DL5) was 2/6. For the same compound, the “CR+PR+MR Rate” value (Cohort A1, DL5) was 3/6, the “CR, patients” value (Cohort A1, DL5) was 1 and the “MR, patients” value (Cohort A1, DL5) was 1. The “PD, patients” value (Cohort A1, DL5) was 2, the “PR, patients” value (Cohort A1, DL5) was 1 and the “Course Best overall response is achieved” value [1] was 14 and 2. The “Patient status at end of course” value [1] was “Off therapy”, the “Course Best overall response is achieved” value (Cohort A1, Dose Level 2, individual patient) was 2 and the “Course Best overall response is achieved” value [2] was 2. The “Patient status at end of course” value [2] was “Off therapy”, the “Course Best overall response is achieved” value [3] was 2 and the “Patient status at end of course” value [3] was “Off therapy”. The “Course Best overall response is achieved” value (Cohort A1, Dose Level 5, individual patient) was 4 and 6 and 2, the “CR, patients” value (Cohort A2 (N=15), Total) was 4 and the “MR, patients” value (Cohort A2 (N=15), Total) was 3. The “PD, patients” value (Cohort A2 (N=15), Total) was 1, the “PR, patients” value (Cohort A2 (N=15), Total) was 3 and the “CR+PR Rate” value (Cohort A2, 100 mg) was 2/5. For the same compound, the “CR+PR+MR Rate” value (Cohort A2, 100 mg) was 3/5, the “CR, patients” value (Cohort A2, 100 mg) was 0 and the “MR, patients” value (Cohort A2, 100 mg) was 1. The “PD, patients” value (Cohort A2, 100 mg) was 1, the “PR, patients” value (Cohort A2, 100 mg) was 2 and the “CR+PR Rate” value (Cohort A2, 150 mg) was 5/10. The “CR+PR+MR Rate” value (Cohort A2, 150 mg) was 7/10, the “CR, patients” value (Cohort A2, 150 mg) was 4 and the “MR, patients” value (Cohort A2, 150 mg) was 2. For the same compound, the “PD, patients” value (Cohort A2, 150 mg) was 0, the “PR, patients” value (Cohort A2, 150 mg) was 1 and the “Course Best overall response is achieved” value [4] was 6 and 2. The “Patient status at end of course” value [4] was “Off therapy”, the “Course Best overall response is achieved” value [5] was 4 and 10 and 6 and 2 and 1 and the “Patient status at end of course” value [5] was “Ongoing therapy; also recorded: Off therapy”. For the same compound, the “CR, patients” value (Cohort B2 (N=8), Total) was 1, the “MR, patients” value (Cohort B2 (N=8), Total) was 3 and the “PD, patients” value (Cohort B2 (N=8), Total) was 3. For the same compound, the “PR, patients” value (Cohort B2 (N=8), Total) was 1, the “CR+PR Rate” value [6] was 1/2 and the “CR+PR+MR Rate” value [6] was 1/2. For the same compound, the “CR, patients” value [6] was 1, the “MR, patients” value [6] was 0 and the “PD, patients” value [6] was 1. The “PR, patients” value [6] was 0, the “CR+PR Rate” value [7] was 1/6 and the “CR+PR+MR Rate” value [7] was 4/6. For the same compound, the “CR, patients” value [7] was 0, the “MR, patients” value [7] was 3 and the “PD, patients” value [7] was 2. The “PR, patients” value [7] was 1, the “Course Best overall response is achieved” value [8] was 2 and the “Patient status at end of course” value [8] was “Off therapy”. The “Course Best overall response is achieved” value [9] was 2, the “Patient status at end of course” value [9] was “Ongoing therapy; also recorded: Off therapy” and the “RR (BOR of CR or PR)” value (cohort A1 (3/23)) was 13%. The “median time to BOR” value (cohort A1, 11 of 23 patients with SD or better) was “two”, the “patients pre-treated with ALK TKI achieving MR or SD” value (cohort A1, four of nine) was 44% and the “modified RR (BOR of CR/PR/MR)” value (cohort A1, single agent, <18 years) was 30%. For the same compound, the “RR (BOR of CR/PR)” value (cohort A2 (7/15)) was 47%, the “median time to BOR” value (cohort A2, 14 of 15 patients with SD or better) was “four” and the “modified RR (BOR of CR/PR/MR)” value (cohort A2, single agent, ≥18 years) was 67%. For the same compound, the “responses in patients with prior ALK TKI” value (cohort A2, three of five) was 60%, the “median time to BOR of SD or better” value (cohort B2) was “two” and the “RR (BOR of CR/PR)” value (cohort B2 (2/8), with topotecan/cyclophosphamide) was 25%. For the same compound, the “patients with MYCN amplification achieving a PR” value (cohort B2, lorlatinib plus topotecan/cyclophosphamide) was “two of three”, the “modified RR (BOR of CR/PR/MR)” value (cohort B2, with topotecan/cyclophosphamide, <18 years) was 63% and 62% and the “Course when BOR obtained” value (individual patients with prior ALK inhibitor, Cohort A1, Dose Level 1) was 2. The “Course when BOR obtained” value (patients with prior ALK inhibitor, Cohort A1, Dose Level 1) was 2, the “Course when BOR obtained” value (patients with prior ALK inhibitor, Cohort A1, Dose Level 2) was 2 and the “Course when BOR obtained” value (patients with prior ALK inhibitor, Cohort A1, Dose Level 3) was 2. For the same compound, the “Course when BOR obtained” value (patients with prior ALK inhibitor, Cohort A1, Dose Level 4) was 2, the “Course when BOR obtained” value (patients with prior ALK inhibitor, Cohort A1, Dose Level 5) was 2 and the “Course when BOR obtained” value (patients with prior ALK inhibitor, Cohort A2, Dose Level 3A) was 2. For the same compound, the “Course when BOR obtained” value (patients with prior ALK inhibitor, Cohort B2, Dose Level 4B) was 2, the “Course when BOR obtained” value (patients with prior ALK inhibitor, Cohort B2, Dose Level 5B) was 2 and 1 and the “Course when BOR obtained” value (prior ALK inhibitor, Cohort A1, Dose Level 2) was 2. For the same compound, the “Course when BOR obtained” value (prior ALK inhibitor, Cohort A1, Dose Level 3) was 2, the “Course when BOR obtained” value (prior ALK inhibitor, Cohort A1, Dose Level 4) was 2 and the “Course when BOR obtained” value (prior ALK inhibitor, Cohort A1, Dose Level 5) was 2. For the same compound, the “Course when BOR obtained” value (prior ALK inhibitor, Cohort B2, Dose Level 4) was 2 and the “Course when BOR obtained” value (prior ALK inhibitor, Cohort B2, Dose Level 5) was 2 and 1.
